From a melting point compilation (Tetko et al.)

| melting point | SMILES |
| --- | --- |
| 79 to 81 °C | CN1CC(=O)N(CCCC(=O)O)C1=O |
| 195 to 197 °C | Nc1nnc(CCc2ccccc2)o1 |
| 119 to 121 °C | Cc1cccc(Cl)c1S(N)(=O)=O |
| 254 to 256 °C | O=C(O)c1cc(N2CCCC2=O)ccc1F |
| 35 to 37 °C | Brc1ccccc1-c1ncno1 |
| 174 to 176 °C | Cn1c(-c2cccc(O)c2)nc2ccccc21 |
| 296 to 298 °C | N#Cc1ccc2[nH]c(=O)[nH]c2c1 |
| 151 to 153 °C | CC1CCC2C(=O)N(C)C(=O)C2C1C(=O)O (stereo not drawn) |
| 221 to 223 °C | Cc1cc(N)n(-c2nc3ccccc3o2)n1 |
| 55 to 57 °C | Cc1ccc(NS(=O)(=O)c2cc(C(=O)O)ccc2C)cc1 |
| 63 to 65 °C | CCOCCCNc1nnc(S)s1 |
| 110 to 112 °C | CC(C)(O)c1ccc2[nH]ccc2c1 |
| 256 to 258 °C | Nc1nnc(-c2cccc([N+](=O)[O-])c2)o1 |
| 60 to 62 °C | Cc1nc(Cl)c2c(CC(C)C)csc2n1 |
| 189 to 191 °C | O=C(O)c1noc(-c2ccccc2F)n1 |
| 134 to 136 °C | Nc1cc(C2CC2)nn1-c1ccccc1 |
| 149 to 151 °C | CCNc1ccc(S(=O)(=O)C(F)(F)F)cc1N |
| 119 to 121 °C | Cc1cc([N+](=O)[O-])c(C)cc1C#N |
| 144 to 146 °C | COc1ccc(N)cc1S(=O)(=O)N(C)C |
| 179 to 181 °C | CNc1ncnc2ccccc12 |
| 150 to 152 °C | O=C(O)CCNS(=O)(=O)c1ccc([N+](=O)[O-])cc1 |
| 185 to 187 °C | Nc1cccc(NC(=O)c2ccncc2)c1 |
| 231 to 233 °C | Cn1cc(C(=O)O)c(-c2ccc(F)cc2F)n1 |
| 111 to 113 °C | CNC(=O)CCC(F)(F)F |
| 114 to 116 °C | C/C(=N\NC(N)=S)c1ccccc1 |
| 159 to 161 °C | CC(=O)Nc1cc(C)nn1CCC#N |
| 87 to 89 °C | CC(C)c1nc(CC(=O)O)cs1 |
| 98 to 100 °C | NC1(C(F)(F)F)CCC(O)CC1 (stereo not drawn) |

| melting point | SMILES |
| --- | --- |
| 227 to 229 °C | O=c1[nH]c2ccc(NCc3ccccc3Cl)cc2[nH]1 |
| 145 to 147 °C | COC(=O)C(=O)CC(=O)c1cc(F)ccc1F |
| 171 to 173 °C | CS(=O)(=O)NCCc1ccc(C(=O)O)cc1 |
| 82 to 84 °C | CC(=O)Nc1cccc(CN)c1 |
| 96 to 98 °C | CC(Cl)C(=O)Nc1cccc(Cl)c1Cl (stereo not drawn) |
| 155 to 165 °C | CCOc1ccc2oc(C(=O)O)c(C)c2c1 |
| 174 to 178 °C | Nc1nccc(C(F)(F)F)n1 |
| 146 to 148 °C | CC(Nc1ccc(Cl)cc1Cl)C(=O)O (stereo not drawn) |
| 92 to 94 °C | NNC(=O)CCc1cccnc1 |
| 162 to 164 °C | Cn1cc(S(N)(=O)=O)c(N)n1 |
| 109 to 111 °C | O=C(O)CCN1CCCC1=O |
| 99 to 101 °C | N#Cc1cc(Cl)ccc1CO |
| 84 to 86 °C | CCOC(=O)C1CCN(C(=O)c2ccccc2)CC1 |
| 49 to 51 °C | COc1ccccc1-c1ccc(C=O)cc1 |
| 269 to 271 °C | NC(=O)c1cncc(C(=O)O)c1 |
| 143 to 145 °C | O=C(O)CCNS(=O)(=O)c1cccc(Cl)c1 |
| 112 to 114 °C | CNC(=O)CNc1ccccc1C |
| 104 to 109 °C | O=C(O)Cc1csc(-c2cccc(Cl)c2)n1 |
| 160 to 162 °C | Nc1ccc(Oc2ccncc2)cc1 |
| 236 to 238 °C | O=C(Nc1ccccn1)c1cc2ccccc2cc1O |
| 188 to 190 °C | O=C(O)c1cc(N2CCCC2=O)cc(C(F)(F)F)c1 |
| 101 to 103 °C | NCc1cccc(S(=O)(=O)NCc2cccc(F)c2)c1 |
| 79 to 81 °C | Cn1ccc(N2CCCC(N)C2=O)n1 (stereo not drawn) |
| 276 to 278 °C | Cc1nc(C)c(C)c(O)n1 |
| 221 to 223 °C | O=c1c2ccccc2nc(S)n1Cc1ccc(Cl)cc1 |
| 230 to 232 °C | Cn1cc(-c2csc(N)n2)cn1 |
| 207 to 209 °C | O=C(O)C1CC(=O)N(c2cccc3ccccc23)C1 (stereo not drawn) |

| SMILES | melting point |
| --- | --- |
| CC(=O)Nc1cccc2c1CCNC2 | 141 to 143 °C |
| Cn1cccc1C(=O)CCl | 30 to 40 °C |
| NC(=O)NC(=O)CCl | 181 to 183 °C |
